Source: patent publication US7838557B2, “Concentrated X-ray contrast media can act as universal antigens and can inhibit or prevent allergic reactions” (priority 2001, dated 2010)

Assays:
Brown Norway Rats = test: Mean arterial blood pressure after i.v. contrast media injection, Brown Norway rats; assay type: in vivo; conditions: mean ± S.E.
Sprague Dawley Rats = test: Mean arterial blood pressure after i.v. contrast media injection, Sprague Dawley rats; assay type: in vivo; conditions: mean ± S.E.
IgG anti-γ-globulin = test: Passive red blood cell hemagglutination inhibition, γ-globulin vs. anti-γ-globulin; assay type: binding; conditions: γ-globulin bound to sheep RBC; incubation 2-3 hours at room temperature
Text: Employing a highly sensitive test for antibody-antigen complexing (passive red blood cell hemagglutination inhibition), we found what we consider the answer to this problem. Ovalbumin and gamma globulin (Sigma) were bound to glutaraldehyde stabilized sheep red blood cells (Inter-Cell Technologies, Hopewell, N.J.). Bis-diazotized benzidine was used to bind the ovalbumin to the RBC's. The gamma-globulin bound directly. In both the case of the ovalbumin and the gamma-globulin, the sensitized red blood cells were allowed to incubate with each of the contrast media (methylglucamine iothalamate [CONRAY; 282 mg iodine/ml, Mallinckrodt Medical, St. Louis Mo.], ioversol [[…] 320; 320 mg iodine/ml, […]; 320 mg iodine/ml, Mallinckrodt] and […]; 300 mg iodine/ml, Schering Pharmaceutical; […] When competition occurred, there would be a diminished diameter of the agglutination, depending on the antibody titer that could be compared to a control, where saline was substituted for the CM. With complete competition (inhibition), no agglutination would be visible and the RBCs would form a small button of cells at the bottom of the microtiter well. Visible agglutination was evaluated on a 1+ to 4+ basis. Studies were also carried out where the RBCs were incubated with CM before or after binding of the antigen to BDB or the RBC to determine whether competition of the CM with the antigen might actually represent displacement of the […] from the RBC surface. It was discovered that contrast media can in fact act as an antigen and combine with antibodies ([…]. and […]., Academic Radiology 1998, 5 (suppl. 1; […]-[…])). This was shown when, at various concentrations, individual contrast media would inhibit the agglutination of RBC-attached ovalbumin or RBC-attached gamma globulin in the presence of their respective antibodies, thus resulting in a button of cells, rather than agglutination, in the bottom of the microtiter well.

[1] = system: ovalbumin-sensitized Sprague Dawley rats; test: Blood pressure in ovalbumin anaphylaxis of ovalbumin-sensitized rats; assay type: in vivo; conditions: CM i.v. 6 hours before, 45 minutes before, concurrently, or 10 minutes after 10 mg ovalbumin
Description: To further substantiate the concept that contrast media, acting as pseudoantigens, could interfere with existing antigen-antibody reactions, an experiment was conducted where a series of rats were sensitized to ovalbumin and later challenged the rats by intravenous injections of ovalbumin.
Varying CM or other materials were injected into the tail vein of anesthetized Sprague Dawley rats ([…]). The CM tested were IOXAGLATE and IODIXANOL. Both are CM dimers and IOXAGLATE is ionic and IODIXANOL is nonionic. The CM injections were done 12 to 14 days after sensitization of the rats by intraperitoneal injections of 1 mg of ovalbumin in normal saline. A Propaq blood pressure apparatus was connected to polyethylene catheters inserted into a carotid artery to monitor mean arterial blood pressure. Injection rates were 6 ml/kg/min. The CM were injected I.V. either 6 hours before, 45 minutes before, concurrent with, or 10 minutes post challenge of a dose of 10 mg of ovalbumin. Saline injections, equiosmolar to the CM and injected at the same time intervals served as controls.

[2] = system: ragweed pollen sensitized rats; test: Experimental allergic conjunctivitis, ragweed pollen sensitized rats; assay type: in vivo, Sprague-Dawley rats
Text: In this Example, the potential protective effect of a contrast material on experimental allergic conjunctivitis induced in rats was examined. The rats were sensitized systemically to either ovalbumin or ragweed pollen and 10 to 12 days later obtained local sensitization by several applications of the respective antigens to the eyes. The rats were then challenged with a larger dose of the antigen accompanied by either the contrast media or equiosmolal saline and sacrificed at several different time periods for examination of the excised eyes.
The tissues were examined on a “blinded” basis and assigned a 0 to 3+ rating based on the perceived abundance of inflammatory cells (mostly lymphocytes, but also including eosinophils, polymorphonuclear leukocytes, and mast cells). The ovalbumin experiment was carried out at 3 hours post antigen application (8 rats) and at 24 hours post application (8 rats) and the ragweed study was carried out at 1 hour post application (8 rats) and at 24 hours post application (8 rats). The cumulative scores for the ratings in each set of rats were recorded. Details of the ovalbumin study are as follows.
A ragweed pollen experiment also involved 16 Sprague-Dawley rats born approximately 2 months previously and sensitized on Day 1 with SQ injections of 0.1 ml of N. saline containing 100 μg of ragweed pollen (P-0146, Sigma) and 20 mg alum. On Day 14, 20 μl of saline (left eye) or 20 μl of IODIXANOL (right eye) were applied to the eyes. 15 min. later, both eyes were treated with 10 μl of phosphate buffered saline containing 1.5 mg of ragweed pollen. The process was done 4 times at 15 min. intervals.

[3] = system: Brown-Norway and Sprague Dawley rats; test: Blood pressure changes in rats after H-1 blocker, L-NAME or contrast media (text and FIGS. 4A-4B); assay type: in vivo
[4] = system: rats injected intradermally with serum from ovalbumin sensitized rats; test: Passive cutaneous anaphylaxis (PCA), Evans Blue extravasation; assay type: in vivo; conditions: for Stain (mm ± S.E./10): 50 μl sensitized serum
Description: In a further test of the ability of appropriate contrast media to mitigate ongoing antigen-antibody reactions, a passive cutaneous anaphylaxis (PCA) experiment was performed in rats.
In this Example, rats were injected intradermally with 50 μL of serum from ovalbumin sensitized rats and varying mixtures of Na/meglumine iothalamate (MD-76; 370 mg iodine/ml, Mallinckrodt) and normal saline to a total of 50 μl. This was followed in 5-7 hours by intravenous injections of 1 mg ovalbumin along with Evans Blue and then measurement of the subsequent extravasation of the blue coloring in the area under the skin. Evans Blue binds to serum albumin and the diameter of the area of blue indicates extravasation of albumin secondary to specific antigen-antibody reactions. […] In this case, where large amounts of CM are available due to local deposition, even an ionic monomer was sufficient to block specific antibody-antigen reactivity (see Table III below).

Compound: CNC(=O)c1c(I)c(NC(C)=O)c(I)c(C(=O)O)c1I.CNC[C@H](O)[C@@H](O)[C@H](O)[C@H](O)CO [Conray, methylglucamine iothalamate]
- Net decrease in mean arterial blood pressure (Brown Norway Rats; Monomers (4 ml)): decrease (37 ± 1.6) (3) mm Hg
- Net decrease in mean arterial blood pressure (Sprague Dawley Rats; Monomers (4 ml)): decrease (55 ± 5.0) (3) mm Hg
- Lowest concentration of CM showing a 2+ or 3+ inhibition of 1/500 IgG anti-γ-globulin (IgG anti-γ-globulin): 28.2 mg/mL

Compound: CNC(=O)c1c(I)c(C(=O)NCC(=O)Nc2c(I)c(C(=O)O)c(I)c(C(=O)NCCO)c2I)c(I)c(N(C)C(C)=O)c1I [HEXABRIX, IOXAGLATE]
- Return of blood pressure after ovalbumin challenge, compared with equiosmolar saline [1]: more rapid return of the blood pressure to normal levels
- Net increase in mean arterial blood pressure (Brown Norway Rats; Dimers (8 ml)): increase (31 ± 4.6) (3) mm Hg
- Lowest concentration of CM showing a 2+ or 3+ inhibition of 1/500 IgG anti-γ-globulin (IgG anti-γ-globulin): 8.0 mg/mL

Compound: CC(=O)N(CC(O)CN(C(C)=O)c1c(I)c(C(=O)NCC(O)CO)c(I)c(C(=O)NCC(O)CO)c1I)c1c(I)c(C(=O)NCC(O)CO)c(I)c(C(=O)NCC(O)CO)c1I (centres unmarked) [IODIXANOL]
- Return of blood pressure after ovalbumin challenge, compared with equiosmolar saline [1]: more rapid return of the blood pressure to normal levels
- Cumulative score of inflammatory cell infiltration (0 to 3+ rating per eye) ([2]; 1 HOUR READING, 20 μl applied to the eye before ragweed pollen, 8 rats): 0
- Protection against ragweed pollen conjunctivitis (in words) ([2]; local application): provides a degree of protection
- Number of zero scores in the group ([2]; no absolute zeros in the saline group, study (ragweed or combined) not specified): 3

Compound: CN(C(=O)CC(=O)N(C)c1c(I)c(C(=O)NC(CO)C(O)CO)c(I)c(C(=O)NC(CO)C(O)CO)c1I)c1c(I)c(C(=O)NC(CO)C(O)CO)c(I)c(C(=O)NC(CO)C(O)CO)c1I (centres unmarked) [ISOVIST, IOTROLAN]
- Net increase in mean arterial blood pressure (Brown Norway Rats; Dimers (4 ml)): increase (18 ± 0.00 (1) mm Hg
- Net increase in mean arterial blood pressure (Brown Norway Rats; Dimers (8 ml)): increase (20 ± 2.0) (4) mm Hg
- Change in blood pressure (in words) ([3]; production of nitric oxide blocked by L-NAME): can no longer produce an elevation in blood pressure
- Change in blood pressure (in words) ([3]; substance injected by itself): produces an elevation in pressure
- Net increase in mean arterial blood pressure (Sprague Dawley Rats; Dimers (8 ml)): increase (11 ± 4.6) (3) mm Hg
- Lowest concentration of CM showing a 2+ or 3+ inhibition of 1/500 IgG anti-γ-globulin (IgG anti-γ-globulin): 14.0 mg/mL

Compound: C[C@H](O)C(=O)Nc1c(I)c(C(=O)NC(CO)CO)c(I)c(C(=O)NC(CO)CO)c1I [Isovue, IOPAMIDOL]
- Net decrease in mean arterial blood pressure (Brown Norway Rats; Monomers (8 ml)): decrease (36 ± 8.6) (2) mm Hg
- Net decrease in mean arterial blood pressure (Sprague Dawley Rats; Monomers (8 ml)): decrease (27 ± 8.6) (2) mm Hg

Compound: COC(=O)[C@@H](N)CCCNC(=N)N[N+](=O)[O-] [L-NAME, NG-nitro-L-arginine methyl ester]
- Change in blood pressure (in words) ([3]; substance injected by itself): immediate elevation in blood pressure

Compound: CNC(=O)c1c(I)c(NC(C)=O)c([125I])c(C(=O)[O-])c1[125I].[Na+] [Na LOTHALAMATE]
- Lowest concentration of CM showing a 2+ or 3+ inhibition of 1/500 IgG anti-γ-globulin (IgG anti-γ-globulin): 28.2 mg/mL

Compound: O=C(NCC(O)CO)c1c(I)c(C(=O)NCC(O)CO)c(I)c(N(CCO)C(=O)CO)c1I (centres unmarked) [OPTIRAY, IOVERSOL]
- Net decrease in mean arterial blood pressure (Brown Norway Rats; Monomers (4 ml)): decrease (20 ± 1.5) (3) mm Hg
- Net decrease in mean arterial blood pressure (Brown Norway Rats; Monomers (8 ml)): decrease (33 ± 2.8) (3) mm Hg
- Net decrease in mean arterial blood pressure (Sprague Dawley Rats; Monomers (8 ml)): decrease (22 ± 0.0) (1) mm Hg
- Lowest concentration of CM showing a 2+ or 3+ inhibition of 1/500 IgG anti-γ-globulin (IgG anti-γ-globulin): 16.0 mg/mL

Compound: CN(C)CCOC(c1ccccc1)c1ccccc1 [diphenyhydramine, diphenhydramine]
- Change in blood pressure (in words) ([3]; substance injected by itself): immediate elevation in blood pressure

Compound: Na/meglumine iothalamate [MD-76]
- Stain (mm ± S.E./10) ([4]; Site 1: 50 μl CM, 0 μl saline): 7.5 ± 7 mm
- Stain (mm ± S.E./10) ([4]; Site 2: 40 μl CM, 10 μl saline): 10.0 ± 10 mm
- Stain (mm ± S.E./10) ([4]; Site 3: 30 μl CM, 20 μl saline): 17.5 ± 10 mm
- Stain (mm ± S.E./10) ([4]; Site 4: 20 μl CM, 30 μl saline): 62.5 ± 28 mm
- Stain (mm ± S.E./10) ([4]; Site 5: 10 μl CM, 40 μl saline): 115 ± 60 mm
- Stain ([4]; controls with nonsensitized serum (3 rats), 0, 25, and 50 μl CM): no stain

Compound: meglumine/sodium diatrizoate [Angiovist]
- Net decrease in mean arterial blood pressure (Brown Norway Rats; Monomers (8 ml)): decrease (40 ± 0.0) (1) mm Hg
